One block for each molecule: values may come before it.
Legend:
[1] = target: T1, GPR40 (Homo sapiens, UniProt O14842); test: Aequorin Ca2+ flux assay in CHO cell line stably expressing GPR40; format: cell-based; conditions: CHO-GPR40 stable cell line; for Emax: compared to natural free fatty acid ligands, read-out: Emax (efficacy)
T1 construct: expressed in transfected cells; host or cells: CHO cell line stably expressing GPR40 and aequorin
Description: Since GPR40 agonists with greater intrinsic activity may have improved anti-diabetic properties, we focused our efforts to discover potent synthetic full agonists.
(§1) GPR40 aequorin, plasmid titration, and inositol phosphate assays were performed as described. For aequorin assays, in addition to transient transfection of GPR40 into CHO cells, a CHO cell line stably expressing both GPR40 and aequorin was generated. GLUTag cells were obtained under a license from Dr. Daniel Drucker, University of Toronto. Competition binding experiments were performed using membranes prepared from A9_GPR40 cells. […] Competition binding assays were carried out in 20 mM Hepes pH 7.5, 5 mM MgCl2, 100 mM NaCl and 0.1% (w/v) free fatty acid BSA and bound radioligand was collected on 96-well GF/C filter plates.

[2] = target: T2, GPR120 (Homo sapiens, UniProt Q5NUL3); test: GPR120 aequorin assay; format: cell-based; conditions: weak activity
T2 construct: expressed in transfected cells
T2 sequence (Q5NUL3 whole entry, species assumed): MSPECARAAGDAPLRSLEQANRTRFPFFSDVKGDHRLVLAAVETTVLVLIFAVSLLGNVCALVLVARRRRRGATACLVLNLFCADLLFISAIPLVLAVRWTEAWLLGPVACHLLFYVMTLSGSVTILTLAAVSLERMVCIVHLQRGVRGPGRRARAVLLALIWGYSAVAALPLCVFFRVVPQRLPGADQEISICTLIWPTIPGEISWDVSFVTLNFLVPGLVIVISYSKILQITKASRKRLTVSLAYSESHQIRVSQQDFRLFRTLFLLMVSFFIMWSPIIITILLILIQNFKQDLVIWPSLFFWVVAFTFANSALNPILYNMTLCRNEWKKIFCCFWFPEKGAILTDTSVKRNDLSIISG
Excerpt: (§2) (A) GPR41 (FFAR3) aequorin assay. GPR41 was force coupled to the calcium signaling pathway by co-transfecting the cells with Gqmyri5. (B) GPR43 (FFAR2) aequorin assay. The short chain fatty acid propionate acts as a natural agonist ligand for GPR41 and GPR43. (C) GPR120 aequorin assay. The unsaturated fatty acids α-LNN and DHA act as natural agonist ligands for GPR120. (D) PPAR-gamma luciferase assay using the thiazolidinedione rosiglitazone as a positive control. […] (TIF) Click here for additional data file.

[3] = target: T1, GPR40; test: Competition binding with 3H-AM-1638 on A9_GPR40 membranes; conditions: unlabelled competitor
Description: as §1

[4] = system: human islets; test: GSIS assay with human islets; format: cell-based; conditions: 12.5 mM glucose
Description: (§3) Mouse islets were isolated and tested for stimulation of GSIS as described. Human islets were purchased from Prodo labs or were obtained from the National Institutes of Health and Juvenile Diabetes Research Foundation supported Islet Cell Resource Consortium (http://icr.coh.org). Islet inositol phosphate assays were performed on islets cells that had been dispersed with trypsin. 10,000 islet cells were plated/well of a 96-well plate and were loaded with ^3H-myo-inositol (0.5 µCi/well) in RPMI overnight prior to treatment. The next day, response to different stimuli was tested in HBSS containing 10 mM LiCl and 0.1% HSA (w/v) for 1 hour at 37°C. Accumulated ^3H-inositol phosphate was measured after capture to SPA beads. Islet perifusion experiments were performed on mouse islets loaded into a Brandel Suprafusion system. Twenty islets were size-matched and loaded per perifusion chamber. Islets were perifused in KRBH containing, sequentially, 3 mM glucose, then 3 mM glucose containing 10 µM drug, 16.7 mM glucose containing 10 µM drug and finally returned to 3 mM glucose containing 10 µM drug. Insulin was measured using an insulin ELISA kit (Alpco). Fetal rat intestinal cells were isolated from e19-day old fetuses of pregnant Sprague-Dawley rats. […] GLP-1 and GIP1 secreted into the media was measured using ELISA kits specific for GLP-1 (Linco) or GIP (Millipore).

[5] = target: PPAR delta (Homo sapiens, UniProt Q03181); test: PPAR-delta luciferase reporter assay; format: cell-based; conditions: concentrations up to 10 µM
PPAR delta, sequence (Q03181 whole entry): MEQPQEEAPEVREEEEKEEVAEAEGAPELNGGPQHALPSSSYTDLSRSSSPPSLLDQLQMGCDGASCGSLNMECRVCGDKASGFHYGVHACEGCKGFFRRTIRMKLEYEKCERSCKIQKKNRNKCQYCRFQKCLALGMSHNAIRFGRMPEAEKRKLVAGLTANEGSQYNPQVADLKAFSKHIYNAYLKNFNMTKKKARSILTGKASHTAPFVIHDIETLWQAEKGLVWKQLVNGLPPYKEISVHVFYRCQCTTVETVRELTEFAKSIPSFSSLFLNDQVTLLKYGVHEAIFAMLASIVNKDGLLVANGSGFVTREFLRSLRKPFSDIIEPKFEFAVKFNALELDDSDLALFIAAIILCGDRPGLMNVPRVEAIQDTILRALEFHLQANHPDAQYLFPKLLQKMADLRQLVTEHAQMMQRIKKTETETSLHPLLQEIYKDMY

[6] = target: T3, GPR41 (FFAR3) (Homo sapiens, UniProt O14843); test: GPR41 aequorin assay; format: cell-based; conditions: up to 10 µM
T3 construct: expressed in transfected cells
T3 sequence (O14843 whole entry, species assumed): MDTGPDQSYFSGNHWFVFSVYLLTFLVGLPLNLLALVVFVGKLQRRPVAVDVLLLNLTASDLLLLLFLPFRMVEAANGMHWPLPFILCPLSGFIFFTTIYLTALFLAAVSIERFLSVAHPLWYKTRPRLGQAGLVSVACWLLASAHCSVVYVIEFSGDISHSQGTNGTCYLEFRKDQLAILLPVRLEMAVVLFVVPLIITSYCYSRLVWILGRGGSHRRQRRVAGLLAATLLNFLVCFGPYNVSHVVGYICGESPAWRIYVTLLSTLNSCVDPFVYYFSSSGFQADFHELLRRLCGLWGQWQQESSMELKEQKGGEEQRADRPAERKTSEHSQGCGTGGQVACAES
Excerpt: as §2

[7] = system: human islet cells; test: Inositol phosphate assay with dispersed human islet cells; format: cell-based
Description: as §3

[8] = system: mouse islets; test: GSIS assay in mouse islets; format: cell-based; conditions: 16.7 mM glucose
Description: (§4) Mouse islets were isolated and tested for stimulation of GSIS as described. Human islets were purchased from Prodo labs or were obtained from the National Institutes of Health and Juvenile Diabetes Research Foundation supported Islet Cell Resource Consortium (http://icr.coh.org). Islet inositol phosphate assays were performed on islets cells that had been dispersed with trypsin. 10,000 islet cells were plated/well of a 96-well plate and were loaded with ^3H-myo-inositol (0.5 µCi/well) in RPMI overnight prior to treatment. The next day, response to different stimuli was tested in HBSS containing 10 mM LiCl and 0.1% HSA (w/v) for 1 hour at 37°C. Accumulated ^3H-inositol phosphate was measured after capture to SPA beads. Islet perifusion experiments were performed on mouse islets loaded into a Brandel Suprafusion system. Twenty islets were size-matched and loaded per perifusion chamber. Islets were perifused in KRBH containing, sequentially, 3 mM glucose, then 3 mM glucose containing 10 µM drug, 16.7 mM glucose containing 10 µM drug and finally returned to 3 mM glucose containing 10 µM drug. Insulin was measured using an insulin ELISA kit (Alpco). Fetal rat intestinal cells were isolated from e19-day old fetuses of pregnant Sprague-Dawley rats. Briefly, fetal intestines were isolated and digested in HBSS buffer containing 0.5 mg/ml collagenase (Sigma), 0.5 mg/ml of hyaluronidase (Sigma) and 0.05 mg/ml of deoxyribonuclease I (Roche) for 30 minutes at 37°C. The digestion was quenched using HBSS containing 15% FBS. Fetal rat intestinal cells were washed and cultured overnight in DMEM containing 5% FBS in 96-well plates. To test for secretion of GLP-1 and GIP in response to treatments, we incubated cells for 1 hour with treatments in KRBH buffer containing 0.05% BSA (w/v). GLP-1 and GIP1 secreted into the media was measured using ELISA kits specific for GLP-1 (Linco) or GIP (Millipore).

[9] = system: islets isolated from GPR40 knockout mice; test: GSIS assay with islets from GPR40 knock-out mice; format: cell-based, mouse
Description: as §4

[10] = target: T4, GPR43 (FFAR2) (Homo sapiens, UniProt O15552); test: GPR43 aequorin assay; format: cell-based; conditions: up to 10 µM
T4 construct: expressed in transfected cells
T4 sequence (O15552 whole entry, species assumed): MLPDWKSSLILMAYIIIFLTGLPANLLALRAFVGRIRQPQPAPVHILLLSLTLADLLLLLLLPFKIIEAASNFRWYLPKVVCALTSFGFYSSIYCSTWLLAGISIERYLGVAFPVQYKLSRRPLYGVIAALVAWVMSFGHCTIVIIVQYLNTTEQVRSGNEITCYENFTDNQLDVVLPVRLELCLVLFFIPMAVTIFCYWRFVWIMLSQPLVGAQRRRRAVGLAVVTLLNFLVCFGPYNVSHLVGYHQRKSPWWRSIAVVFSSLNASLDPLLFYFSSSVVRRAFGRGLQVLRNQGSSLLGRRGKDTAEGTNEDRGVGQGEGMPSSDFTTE
Excerpt: as §2

[11] = target: PPAR alpha (Homo sapiens, UniProt Q07869); test: PPAR-alpha luciferase reporter assay; format: cell-based; conditions: concentrations up to 10 µM
PPAR alpha, sequence (Q07869 whole entry, species assumed): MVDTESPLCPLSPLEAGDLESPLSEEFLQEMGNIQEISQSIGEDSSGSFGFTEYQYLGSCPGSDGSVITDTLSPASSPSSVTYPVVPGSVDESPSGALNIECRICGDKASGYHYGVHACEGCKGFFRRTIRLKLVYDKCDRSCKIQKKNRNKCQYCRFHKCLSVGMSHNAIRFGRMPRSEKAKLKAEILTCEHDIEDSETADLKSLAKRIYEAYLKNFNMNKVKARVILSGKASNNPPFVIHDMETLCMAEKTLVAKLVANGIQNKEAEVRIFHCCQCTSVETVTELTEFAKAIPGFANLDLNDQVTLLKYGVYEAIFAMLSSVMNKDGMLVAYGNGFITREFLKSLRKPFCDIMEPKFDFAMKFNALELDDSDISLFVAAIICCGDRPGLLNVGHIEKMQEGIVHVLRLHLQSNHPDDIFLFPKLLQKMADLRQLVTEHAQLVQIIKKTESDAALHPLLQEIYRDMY

[12] = target: PPAR gamma (Homo sapiens, UniProt P37231); test: PPAR-gamma luciferase assay; format: cell-based; conditions: concentrations up to 10 µM
PPAR gamma, sequence (P37231 whole entry): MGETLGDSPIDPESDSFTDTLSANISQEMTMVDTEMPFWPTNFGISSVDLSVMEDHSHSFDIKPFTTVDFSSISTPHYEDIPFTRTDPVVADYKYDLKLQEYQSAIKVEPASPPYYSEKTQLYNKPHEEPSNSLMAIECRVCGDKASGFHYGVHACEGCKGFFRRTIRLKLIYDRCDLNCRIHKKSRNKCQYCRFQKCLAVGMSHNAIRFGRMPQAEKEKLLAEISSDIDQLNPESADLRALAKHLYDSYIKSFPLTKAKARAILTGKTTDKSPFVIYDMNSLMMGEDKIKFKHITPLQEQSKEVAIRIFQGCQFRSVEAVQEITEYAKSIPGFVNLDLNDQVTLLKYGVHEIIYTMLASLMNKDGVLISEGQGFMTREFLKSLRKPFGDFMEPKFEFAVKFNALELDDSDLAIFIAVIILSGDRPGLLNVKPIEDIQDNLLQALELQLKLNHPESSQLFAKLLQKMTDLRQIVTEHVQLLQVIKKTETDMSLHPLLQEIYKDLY
Excerpt: as §2

[13] = target: T1, GPR40; test: Inositol phosphate accumulation assay in A9 cells stably expressing GPR40 (A9_GPR40); format: cell-based; conditions: for agonist character: inositol phosphate accumulation, A9 cells stably expressing GPR40 (figure S1)
Description: as §1
(A) Structure of selected GPR40 agonists. (B) GPR40 agonists were tested in parallel in vitro in an inositol phosphate accumulation assay in A9 cells stably expressing GPR40. (TIF) Click here for additional data file.

[14] = system: GLUTag cells; test: Inositol phosphate accumulation assay in GLUTag enteroendocrine L-cell line; format: cell-based, mouse
Description: (§5) Increased GLP-1 and GIP would be expected to have additional benefits in type 2 diabetics. […] We tested for potential effects on incretin secretion in vitro by using cells isolated from fetal rat intestines.
as §1

[15] = system: HF/STZ mice; test: OGTT in high-fat fed, streptozotocin-treated (HF/STZ) type 2 diabetic mice; format: in vivo, mouse
Description: (§6) All procedures on animals were approved by the Amgen San Francisco Institutional Animal Care and Use Committee (approved protocols #11–04 and #2007–00106). The Amgen San Francisco vivarium is an AAALAC accredited facility. Animals were housed under a 12-h light, 12-h dark cycle (lights-on 0600 h and lights-off 1800 h) and were allowed ad libidum access to chow and water. The HF/STZ mice were established as previously described. Briefly, C57BL/6j mice (Jackson labs) at 4 weeks of age were fed a high-fat diet (BioServ S1850, 35% fat) for 3-weeks and then injected with 95 mg/kg streptozotocin (Sigma) ip to induce beta cell dysfunction. The animals continued on the same high fat diet for 3–6 additional weeks. Animals were then randomized into treatment groups based on fasting blood glucose and insulin measures. NONcNZO10/LtJ (RCS10) male mice (Jackson labs) were used at 12-weeks of age and randomized for treatment based on fasting glucose levels. For OGTT experiments, drugs were formulated in 1% HPMC, 10% HPbCD, 1% Tween-80 and dosed via oral gavage. Glucose was administered at 2 g/kg 1-hour post drug dose by oral gavage.
(§7) For all glucose tolerance tests, glucose and insulin measurements were taken from tail vein samples at various time-points. Blood glucose values were measured on an Accu-Chek glucometer (Roche Diagnostics), while insulin levels were determined using an ELISA (Alpco).

[16] = target: mouse GPR40 (Mus musculus, UniProt Q76JU9); test: Mouse GPR40 inositol phosphate accumulation assay; format: cell-based
mouse GPR40, sequence (Q76JU9 whole entry): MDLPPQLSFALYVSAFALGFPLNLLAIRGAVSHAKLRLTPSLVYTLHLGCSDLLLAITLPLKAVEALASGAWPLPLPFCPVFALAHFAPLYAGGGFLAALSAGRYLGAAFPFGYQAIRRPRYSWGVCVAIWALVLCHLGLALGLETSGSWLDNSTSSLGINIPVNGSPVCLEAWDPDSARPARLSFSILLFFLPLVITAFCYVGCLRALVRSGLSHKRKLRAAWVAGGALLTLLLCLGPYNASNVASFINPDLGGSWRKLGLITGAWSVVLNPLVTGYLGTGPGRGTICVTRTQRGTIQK
Description: as §1

[17] = system: fetal rat intestinal cells; test: GLP-1 secretion assay with fetal rat intestinal cells; format: cell-based; conditions: 1 hour
Excerpt: as §5
as §3, with “Islets were perifused in KRBH containing, sequentially, 3 mM glucose, then 3 mM glucose containing 10 µM drug, 16.7 mM glucose containing 10 µM drug and finally returned to 3 mM glucose containing 10 µM drug.” left out, “(Alpco).” for “(Alpco). Fetal rat intestinal cells were isolated from e19-day old fetuses of pregnant Sprague-Dawley rats.”

[18] = system: Zucker fatty rats; conditions: 21-day, qd dosing; cited from earlier work
[19] = system: mouse islets; test: Mouse islet perifusion assay; format: cell-based; conditions: 10 µM compound
Description: as §4

[20] = system: HF/STZ mice; test: Single oral dose without glucose challenge in HF/STZ mice: GLP-1, insulin, glucose, GIP; format: in vivo, mouse
Description: The increase in insulin secretion by GPR40 agonists is due to direct stimulation of GPR40 receptors on pancreatic β-cells, but may also be derived from stimulation of the gut peptides GLP-1 and GIP, which subsequently act on the GLP-1 and GIP G protein-coupled receptors found on pancreatic β-cells. […] No glucose challenge was performed in order to isolate the effects of the compounds alone.
as §6

[21] = Unbound plasma drug concentration in HF/STZ mice; format: in vivo; conditions: C57BL/6j, mouse, 100 mg/kg oral, 1-hour post drug administration, by MS, read-out: free drug level in plasma
[22] = system: humans; conditions: cited from earlier work
[23] = system: wild type and GPR40 knockout mice; test: OGTT and GLP-1 secretion in wild type and GPR40 null mice; format: in vivo, mouse; conditions: OGTT, single oral dose
Description: as §6, §7

T1 sequence (O14842 whole entry): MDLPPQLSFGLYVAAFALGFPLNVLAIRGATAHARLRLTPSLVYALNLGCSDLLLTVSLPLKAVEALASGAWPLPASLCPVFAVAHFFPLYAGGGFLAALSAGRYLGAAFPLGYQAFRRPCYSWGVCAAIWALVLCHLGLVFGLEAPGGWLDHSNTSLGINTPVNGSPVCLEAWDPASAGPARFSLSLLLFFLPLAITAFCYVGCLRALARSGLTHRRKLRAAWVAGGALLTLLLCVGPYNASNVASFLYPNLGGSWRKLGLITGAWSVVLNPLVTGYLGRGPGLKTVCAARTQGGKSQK

- EC50 [1]: 1500 ± 170 nM
- Emax [1]: 98%
Molecule: CC#CC(CC(=O)O)c1ccc(OCc2ccc(-c3cccc(OC)c3)cc2)cc1 (racemic) [(±)-AM-8596]

- EC50 [2]: ~5000 nM
- displacement of 3H-AM-1638 [3]: displaced ^3H-AM-1638
- activation of PPAR delta [5]: did not activate
- activation of GPR41 (FFAR3) [6]: did not activate
- EC50 ([8]; read-out: EC50 for potentiation of insulin secretion): 940 ± 600 nM
- activation of GPR43 (FFAR2) [10]: did not activate
- activation of PPAR alpha [11]: did not activate
- activation of PPAR gamma [12]: did not activate
- EC50 [1]: 130 ± 30 nM
- Emax [1]: 105%
- intrinsic activity, fold greater than AMG 837 ([13]; inositol phosphate assay): ~2 fold
- EC50 ([13]; inositol phosphate assay, 1-hour accumulation, read-out: Half-maximal potency): 5.7 ± 0.8 nM
Molecule: CC[C@H](CC(=O)O)c1cccc(OCc2ccc(-c3cc(OC)ccc3F)c([C@@H]3CCCC3(C)C)c2)c1F [AM-6226]
- stimulation of insulin secretion compared with AMG 837 [4]: significantly greater
- IP production efficacy, fold greater than AMG 837 [7]: 8–10 ×
- increase of insulin secretion, fold from that of AMG 837 [8]: 3–4 fold
- GSIS response of GPR40 knockout islets [9]: did not respond
- inositol phosphate accumulation, fold increase compared to AMG 837 [14]: 3–4 fold

- EC50 [1]: 2400 ± 100 nM
- Emax [1]: 106%
Molecule: C/C=C/[C@H](CC(=O)O)c1ccc(OCc2ccc(-c3cc(OC)ccc3F)cc2)cc1 [AM-8182]

- EC50 [16]: 11 ± 0.05 nM
- concentration at 1 h [21]: 826 ± 66 nM
Molecule: CC#C[C@@H](CC(=O)O)c1ccc(OCc2cccc(-c3ccc(C(F)(F)F)cc3)c2)cc1 [AMG 837, reference compound]
- Glucose AUC improvement ([15]; OGTT, 100 mg/kg oral, 1 hour before glucose): 19%
- doses at which maximally efficacious ([15]; preliminary experiments): ≥ 60 mg/kg
- GLP-1 release in vitro [17]: could stimulate GLP-1 release
- anti-diabetic effects after repeated dosing [18]: sustained anti-diabetic effects
- insulin stimulation compared to vehicle control ([19]; 3 mM glucose): neither AMG 837 nor AM-1638 stimulated insulin
- insulin secretion ([19]; 16.7 mM glucose): increased both first and second phase insulin secretion
- blood glucose levels ([20]; HF/STZ mice, single oral dose, no glucose challenge): stabilized blood glucose levels
- GLP-1 or GIP levels in vivo ([20]; oral gavage, doses as high as 100 mg/kg): does not substantially increase
- glucose and insulin levels in healthy volunteers ([22]; phase 1 clinical trials, ref Amgen, data on file): did not lower glucose or increase insulin levels

- agonist character [13]: partial agonists
Molecule: O=C(O)CCc1ccc(NCc2cccc(Oc3ccccc3)c2)cc1 [GW-9508, reference compound]

Molecule: Cc1cc(OCCCS(C)(=O)=O)cc(C)c1-c1cccc(COc2ccc3c(c2)OC[C@H]3CC(=O)O)c1 [TAK-875]
- glycemic parameters in type 2 diabetic subjects [22]: improve glycemic parameters
- incretin levels in type 2 diabetic patients [22]: not associated with a change in incretin levels

- agonist character [13]: partial agonists
Molecule: Cc1ccccc1C#Cc1ccc(CCC(=O)O)cc1 [TUG-424, reference compound]

Molecule: N[C@@H](CC(=O)N1CCn2c(nnc2C(F)(F)F)C1)Cc1cc(F)c(F)cc1F [sitagliptin, reference compound]
- improvement in pre- and post-challenge glucose levels ([23]; GPR40 knockout mice): maintained in both
- improvement in pre- and post-challenge glucose levels ([23]; wild type mice): maintained in both

Molecule: Exendin-4: exerts its effects via GLP-1R [reference compound]
- GSIS response of GPR40 knockout islets [9]: did respond

Reference: paper PMC3467217, “A Potent Class of GPR40 Full Agonists Engages the EnteroInsular Axis to Promote Glucose Control in Rodents” (PLoS ONE, 2012)
